# How the values were obtained:
# [1] = target: T1, glucocorticoid receptor (Homo sapiens, UniProt P04150); assay: HepG2 Tyrosine Aminotransferase (TAT) Assay; type: cell-based
# T1 construct: endogenous in cells; host or cells: HepG2
# T1 sequence (P04150 1-777): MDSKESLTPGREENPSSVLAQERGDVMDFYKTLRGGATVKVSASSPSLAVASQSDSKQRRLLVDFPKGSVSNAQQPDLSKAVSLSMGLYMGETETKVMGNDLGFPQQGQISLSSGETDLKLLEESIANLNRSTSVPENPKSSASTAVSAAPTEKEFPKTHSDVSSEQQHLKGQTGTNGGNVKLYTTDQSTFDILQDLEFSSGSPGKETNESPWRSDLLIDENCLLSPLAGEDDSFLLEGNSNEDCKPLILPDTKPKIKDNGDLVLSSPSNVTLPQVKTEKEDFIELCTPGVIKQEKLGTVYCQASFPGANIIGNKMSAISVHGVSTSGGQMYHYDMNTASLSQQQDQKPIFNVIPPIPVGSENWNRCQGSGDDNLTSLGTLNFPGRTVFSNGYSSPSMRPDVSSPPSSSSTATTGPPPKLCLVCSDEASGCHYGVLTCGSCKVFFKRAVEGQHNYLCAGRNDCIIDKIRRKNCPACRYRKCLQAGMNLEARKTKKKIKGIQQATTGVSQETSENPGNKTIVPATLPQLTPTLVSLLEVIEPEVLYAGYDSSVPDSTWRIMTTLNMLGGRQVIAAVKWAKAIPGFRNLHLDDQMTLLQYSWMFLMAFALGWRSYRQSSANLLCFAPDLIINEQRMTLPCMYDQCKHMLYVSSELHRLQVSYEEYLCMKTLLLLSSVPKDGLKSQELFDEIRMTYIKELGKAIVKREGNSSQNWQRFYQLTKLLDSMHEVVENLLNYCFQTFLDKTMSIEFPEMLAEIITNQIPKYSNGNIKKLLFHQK
# Procedure: Glucocorticoid mediated activation of TAT occurs by transactivation of glucocorticoid response elements in the TAT promoter by glucocorticoid receptor-agonist complex.
# HepG2 cells were cultured using MEME media supplemented with 10% (v/v) foetal bovine serum; 2 mM L-glutamine and 1% (v/v) NEAA at 37° C., 5%/95% (v/v) CO2/air.
# Compounds were serially half log diluted in 100% (v/v) dimethylsulphoxide from a 10 mM stock.
# HepG2 cells were then lysed with 30 μl of cell lysis buffer containing a protease inhibitor cocktail for 15 minutes at 4° C. […] After 2 hours incubation at 37° C. the reaction was terminated by the addition of 15 μl of 10 M aqueous potassium hydroxide solution, and the plates incubated for a further 30 minutes at 37° C.
# [compound] and fitting the data to a 4 parameter logistic equation.
# [2] = target: T2, human recombinant GR (Homo sapiens, UniProt P04150); assay: Human Glucocorticoid Receptor (GR) Fluorescence Polarisation (FP) Binding Assay; conditions: Ki from IC50 by ligand depletion correction; displacement of Fluorome GS Red
# T2 construct: purchased PanVera P2812
# T2 sequence (P04150 1-777): T1 sequence (P04150 1-777)
# Procedure: The following is a description of a FP assay for measuring compound inhibition of labelled glucocorticoid binding to the human recombinant GR.
# The binding affinity of test compounds was determined using a FP binding assay using human recombinant GR (PanVera P2812) and a fluorescent labelled glucocorticoid ligand (Fluorome GS Red) (PanVera P2894). The presence of inhibitors prevents the formation of a GS Red/GR complex resulting in a decrease in the measured polarisation value. The change in polarisation value in the presence of test compounds is used to calculate the binding affinity of the compound for GR.
# This assay was performed in 384 well, black, round-bottom, polypropylene micro titre plates in a final volume of 20 μl. The assay contained 5 μl 1 nM GR (final concentration), 5 μl 0.5 nM Fluorome GS Red (final concentration) in the presence of 10p test compounds. Positive control wells (high polarisation) receive, 10 μl 2% (v:v) DMSO vehicle (1% (v/v) final concentration)+5 μl 1 nM GR and 5 μl 0.5 nM Fluorome GS Red. […] Assay blank background wells (used for normalisation) receive 15 μl 1×GS screening buffer+5 μl GR.
# For the IC50 determination (concentration of compound that displaces 50% of the bound GS Red), compounds were tested at eight different concentrations in duplicate in two independently performed experiments. Compounds were prepared as solubilised solids at 10 mM in DMSO. On the day of assay, an 8 point half-log serial dilution (55 μl DMSO+25 μl compound solution) was prepared. A 1:50 dilution (1 μl compound solution+49 μl 1×GR screening buffer) was prepared for each compound. The compounds were prepared at 2× final assay concentration.
# The plates were mixed and incubated for 4 hour at room temperature. FP was measured using an Envision Excite plate reader with 535 nm excitation and 590 nm emission interference filters.
# Milli-polarisation (mP) values were calculated using the below equation: mP=1000*(S−G*P)/(S+G*P) where S and P are assay blank background subtracted fluorescence units, G=G-factor (1.07).
# Compound IC50 values were calculated by plotting a [compound] v. % inhibition curve and fitting the data to a 4-parameter logistic fit equation.
# 10×GR screening buffer (100 mM potassium phosphate pH 7.4, 200 mM Na2MoO4, 1 mM EDTA, 20% (v/v) DMSO). To prepare 1×GR screening buffer, combine 1 ml 10×GR screening buffer (PanVera P2814)+1 ml stabilising peptide (PanVera P2815)+7.95 ml 4° C. MQ water. Add 50p 1M DTT, vortex and place on ice until use.
Structure (SMILES),Ki [1],Ki [2]
"CC(C)n1ncc(S(=O)(=O)N2CC[C@H]3Cc4c(cnn4-c4ccc(F)cc4)C[C@]3(C(=O)c3cc(C(F)(F)F)ccn3)C2)n1 [Example 2AD, ((4aR,8aS)-1-(4-fluorophenyl)-6-((2-isopropyl-2H-1,2,3-triazol-4-yl)sulfonyl)-4,4a,5,6,7,8,8a,9-octahydro-1H-pyrazolo[3,4-g]isoquinolin-4a-yl)(4-(trifluoromethyl)pyridin-2-yl)methanone]",< 20 nM,< 0.5 nM
"CCn1ncc(S(=O)(=O)N2CC[C@H]3Cc4c(cnn4-c4ccc(F)cc4)C[C@]3(C(=O)c3cc(C(F)(F)F)ccn3)C2)n1 [Example 2O, ((4aR,8aS)-6-((2-ethyl-2H-1,2,3-triazol-4-yl)sulfonyl)-1-(4-fluorophenyl)-4,4a,5,6,7,8,8a,9-octahydro-1H-pyrazolo[3,4-g]isoquinolin-4a-yl)(4-(trifluoromethyl)pyridin-2-yl)methanone]",< 20 nM,0.5 to 1 nM
"Cn1ncc(S(=O)(=O)N2CC[C@H]3Cc4c(cnn4-c4ccc(F)cc4)C[C@]3(C(=O)c3nccs3)C2)n1 [Example 2Y, ((4aR,8aS)-1-(4-fluorophenyl)-6-((2-methyl-2H-1,2,3-triazol-4-yl)sulfonyl)-4,4a,5,6,7,8,8a,9-octahydro-1H-pyrazolo[3,4-g]isoquinolin-4a-yl)(thiazol-2-yl)methanone]",> 100 nM,> 1 nM
"Cn1ncc(S(=O)(=O)N2CC[C@H]3Cc4c(cnn4-c4ccc(F)cc4)C[C@]3(C(=O)c3cc(C(F)(F)F)ccn3)C2)n1 [Example 2C, ((4aR,8aS)-1-(4-fluorophenyl)-6-((2-methyl-2H-1,2,3-triazol-4-yl)sulfonyl)-4,4a,5,6,7,8,8a,9-octahydro-1H-pyrazolo[3,4-g]isoquinolin-4a-yl)(4-(trifluoromethyl)pyridin-2-yl)methanone]",< 20 nM,0.5 to 1 nM
"O=C(c1ccccn1)[C@]12Cc3cnn(-c4ccc(F)cc4)c3C[C@@H]1CCN(S(=O)(=O)c1cccc(C(F)(F)F)n1)C2 [Example 2Q, ((4aR,8aS)-1-(4-fluorophenyl)-6-((6-(trifluoromethyl)pyridin-2-yl)sulfonyl)-4,4a,5,6,7,8,8a,9-octahydro-1H-pyrazolo[3,4-g]isoquinolin-4a-yl)(pyridin-2-yl)methanone]",< 20 nM,0.5 to 1 nM
"O=C(c1cc(C(F)(F)F)ccn1)[C@]12Cc3cnn(-c4ccc(F)cc4)c3C[C@@H]1CCN(S(=O)(=O)c1cn[nH]n1)C2 [Example 2AE, ((4aR,8aS)-6-((2H-1,2,3-triazol-4-yl)sulfonyl)-1-(4-fluorophenyl)-4,4a,5,6,7,8,8a,9-octahydro-1H-pyrazolo[3,4-g]isoquinolin-4a-yl)(4-(trifluoromethyl)pyridin-2-yl)methanone]",> 100 nM,> 1 nM
"CCn1cc(S(=O)(=O)N2CC[C@H]3Cc4c(cnn4-c4ccc(F)cc4)C[C@]3(C(=O)c3cc(C(F)(F)F)ccn3)C2)cn1 [Example 2K, ((4aR,8aS)-6-((1-ethyl-1H-pyrazol-4-yl)sulfonyl)-1-(4-fluorophenyl)-4,4a,5,6,7,8,8a,9-octahydro-1H-pyrazolo[3,4-g]isoquinolin-4a-yl)(4-(trifluoromethyl)pyridin-2-yl)methanone]",20 to 100 nM,0.5 to 1 nM
"O=C(c1ccccn1)[C@]12Cc3cnn(-c4ccc(F)cc4)c3C[C@@H]1CCN(S(=O)(=O)c1ccc(C(F)(F)F)cc1)C2 [Example 1A, ((4aR,8aS)-1-(4-fluorophenyl)-6-((4-(trifluoromethyl)phenyl)sulfonyl)-4,4a,5,6,7,8,8a,9-octahydro-1H-pyrazolo[3,4-g]isoquinolin-4a-yl)(pyridin-2-yl)methanone]",20 to 100 nM,0.5 to 1 nM
"O=C(c1cscn1)[C@]12Cc3cnn(-c4ccc(F)cc4)c3C[C@@H]1CCN(S(=O)(=O)c1cccc(C(F)(F)F)n1)C2 [Example 2AH, ((4aR,8aS)-1-(4-fluorophenyl)-6-((6-(trifluoromethyl)pyridin-2-yl)sulfonyl)-4,4a,5,6,7,8,8a,9-octahydro-1H-pyrazolo[3,4-g]isoquinolin-4a-yl)(thiazol-4-yl)methanone]",< 20 nM,0.5 to 1 nM
"CC(C)n1cc(S(=O)(=O)N2CC[C@H]3Cc4c(cnn4-c4ccc(F)cc4)C[C@]3(C(=O)c3ccccn3)C2)cn1 [Example 2AA, ((4aR,8aS)-1-(4-fluorophenyl)-6-((1-isopropyl-1H-pyrazol-4-yl)sulfonyl)-4,4a,5,6,7,8,8a,9-octahydro-1H-pyrazolo[3,4-g]isoquinolin-4a-yl)(pyridin-2-yl)methanone]",20 to 100 nM,< 0.5 nM

# Source: patent US12139486B2, “Octahydro fused azadecalin glucocorticoid receptor modulators” (Corcept Therapeutics, Inc., priority 2013, dated 2024)
